Experimental data reported in US20240114902A1, “COMPOSITIONS AND METHODS FOR DETERRING OVIPOSITION BY FRUIT FLIES” (The United States of America, as represented by The …, priority 2022, published 2024).

What was measured:
Assay type in all cases: in vivo
[1] = test system: Bactrocera dorsalis (OFF); experiment: OFF two-choice cage oviposition bioassay on guava juice-infused agar; parameters: key to Activity (OFF oviposition group): Negative: “OFF negative” (i.e., oviposition reduced); Neutral: “OFF neutral” (i.e., no effect on oviposition); Positive: “OFF positive” (i.e., oviposition increased); settings: for effect on OFF oviposition vs control agar / OFF oviposition deterrence at lower dose: individual compound; for effect on OFF oviposition vs control agar / OFF oviposition increase vs control agar / OFF oviposition reduction vs control agar: 20 mg/agar; for Activity (OFF oviposition group): individual CFA component; for OFF oviposition increase vs control agar: ethanol control; for OFF oviposition reduction vs control agar: 3 days; for OFF oviposition deterrence at lower dose: 2 mg dose
Protocol: Evaluation of oviposition deterrence of CFA: OFF oviposition bioassays were conducted using laboratory two-choice cage experiments with guava juice-infused agar as an oviposition substrate. The agar plates were prepared by pouring 30 mL of boiled agar mixture [1000 mL distilled water, 500 mL guava juice (Deans Foods, El Paso, Texas, USA), 10 g agar, 0.6 g methylparaben, 6.7 mL 95% ethanol, and 3 mL acetic acid] into a 30 mL deli plastic cup to gel. The agar was then covered with a lid to avoid desiccation. The two-choice oviposition bioassay was conducted in screened cages using 20 mated OFF females per cage (12-18 day-old; Jang E B et al., 1997, “Attraction of female oriental fruit fly, Bactrocera dorsalis, to volatile semiochemicals from leaves and extracts of a non-host plant, Panax (Polyscias guilfoylei) in laboratory and olfactometer assays,” J. Chem. Ecol. 23:1389-1401) over 3 days. Each cage was provided with a ball of water-saturated cotton, sugar, and protein hydrolysate in separate 30 mL deli cups and two guava juice agar plates-one treated with CFA diluted in hexane and the other treated with the hexane control. The agar plates were surface-treated either with 200 μL of hexane or 200 μL of CFA in one of 4 doses tested (20, 2, 0.2, and 0.02 mg/200 μL of hexane), placed into a fume hood for 10 minutes prior to use in bioassays, and positioned upside-down (i.e., treated side down) on the center of the outside top of the screened cage 17 cm apart from each other (i.e., one each of control and CFA treated), allowing female flies to oviposit on guava juice agar from the bottom through the cage screen. After three days, OFF eggs in the guava agar were gently separated from the agar in water and the number of eggs were individually counted (up to 100 eggs) or estimated volumetrically at 1 mL OFF eggs=20,000 eggs (Stephanie Gayle personal communication). The experiment was replicated six times per treatment. Determination of bioactive oviposition deterrent components from CFA: A series of bioassays was conducted to identify key deterrent components of CFA for OFF using the same two-choice bioassay design described above. […] Ethanol was used as control and for preparing dilutions of C16:0 and C18:0. Hexane was used as control and for dilutions of the other six compounds tested. Based on the outcome of these bioassays, the eight free fatty acid components were assigned to “OFF negative” (i.e., oviposition reduced), “OFF neutral” (i.e., no effect on oviposition), and “OFF positive” (i.e., oviposition increased) compound groups. Using these groupings, four different blends were formulated (indicated in Table 1), composed at the equivalent ratios and concentrations of each component found in CFA (Zhu J J et al., 2018, supra), to determine key bioactive CFA components in terms of oviposition deterrence on OFF. The approach involved testing the bioactivity of the OFF negative-component blend (4c blend) for oviposition deterrence at three different doses (2, 0.2, and 0.02 mg CFA equivalent/agar), first comparing with hexane control, then with CFA at respective equivalent doses. As the 4c blend was not as effective as CFA, a “OFF negative+OFF neutral” component blend (6c blend) was then formulated, and its effect compared with CFA at 2 and 0.2 mg CFA equivalent/agar. Two subtraction blends with one of the two OFF neutral components removed from the 6c blend (5c-i and 5c-ii blends) were formulated and compared with the 6c blend at 2 and 0.2 mg CFA equivalent/agar. The experiment was replicated four to six times per treatment.

Bactrocera dorsalis = experiment: B. dorsalis spatial deterrence, two-choice traps baited with guava juice; settings: tested individually
Protocol: In addition to CFA, a series of odd-numbered carbon fatty acids (C9:0 to C17:0) and fatty acid methyl esters were evaluated for the spatial deterrence to B. dorsalis that results in oviposition reduction. Table 3 below lists the fatty acid methyl esters tested for spatial repellency for Bactrocera dorsalis. […] FIG. 16A, FIG. 16C, FIG. 16E, FIG. 16G, FIG. 16I, FIG. 16K, FIG. 16M, FIG. 16O, FIG. 16Q, and FIG. 16S show the mean numbers (±SEM) of mated female B. dorsalis flies captured, and FIG. 16B, FIG. 16D, FIG. 16F, FIG. 16H, FIG. 16J, FIG. 16L, FIG. 16N, FIG. 16P, FIG. 16R, and FIG. 16T show the number of B. dorsalis eggs oviposited in traps baited with guava juice (control) and with guava juice plus one of the coconut fatty acid methyl ester compounds in two-choice bioassays. For each test, different letter on the bar indicate a significant difference by Tukey-Kramer tests at P<0.05, n=4.

Zeugodacus cucurbitae = experiment: Z. cucurbitae two-choice oviposition bioassay on pumpkin juice-infused agar; parameters: key to Behavioral activity (Z. cucurbitae oviposition group): Negative: “negative” (i.e., oviposition reduced); Neutral: “neutral” (i.e., no effect on oviposition); Positive: “positive” (i.e., oviposition increased); settings: for Z. cucurbitae oviposition increase vs ethanol control agar: 24 hours; for Behavioral activity (Z. cucurbitae oviposition group): individual CFFA component; for Z. cucurbitae oviposition reduction vs control agar: individual compound
Protocol: Oviposition bioassays were conducted with mated female flies, using pumpkin juice-infused agar as an oviposition substrate. A small petri dish (60×15 mm) filled with 10 mL of 1% agar mixed in pumpkin juice was used as an oviposition substrate. The agar plates were surface-treated either with 200 μL of ethanol or 200 μL of CFFA in one of 4 doses tested (20, 2, 0.2, and 0.02 mg/200 μL of ethanol), placed into a fume hood for 10 minutes for solvent evaporation prior to use in bioassays, and positioned upside-down (i.e. treated side down) on top of the 30×30×30 cm (W×L×H) screened cage 17 cm apart from each other (i.e. one each of control and CFFA treated), allowing 20 female flies (14 to 18 day-old) to oviposit on pumpkin juice agar from the bottom through the cage screen for 24 hours. Each cage was provided with a ball of water-saturated cotton, sugar, and protein hydrolysate in separate 30 mL deli cups and two oviposition substrates-one treated with CFFA diluted in ethanol and the other treated with the ethanol control. After 24 hours, Z. cucurbitae eggs in the pumpkin agar were gently separated from the agar in water and the number of eggs were individually counted. The experiment was replicated five times per treatment. CFFA was not an effective oviposition deterrent for Z. cucurbitae which is contrary to our previous work on B. dorsalis (Roh et al., 2023a). […] CFFA components were categorized into three groups “negative” (i.e., oviposition reduced), “neutral” (i.e., no effect on oviposition), and “positive” (i.e., oviposition increased) based on bioassay outcome. Using these categories, further formulations were made to determine key bioactive CFFA components in terms of oviposition deterrence on Z. cucurbitae at the equivalent ratios and concentrations of each component found in CFFA (Zhu et al. 2018). The approach involved testing the bioactivity of the negative-component blend (4c blend) for oviposition deterrence at three different doses (2, 0.2, and 0.02 mg CFFA equivalent/agar), compared with ethanol control. Further, neutral compound is added to the negative blend i.e., ‘negative+neutral’ component blend (5c blend) to identify key compounds for oviposition deterrence. The experiment was replicated five times per treatment.

Drosophila suzukii (SWD) = experiment: SWD laboratory two-choice oviposition bioassay on raspberries; parameters: key to Behavioral activity (SWD oviposition group): Negative: “SWD negative” compounds (i.e., SWD oviposition was reduced); Neutral: “SWD neutral” compounds (i.e., no effect on oviposition); settings: two-choice; for Behavioral activity (SWD oviposition group): individual CFA component; for effect on SWD oviposition vs control: individual compound, 20 mg dose
Protocol: Laboratory choice test 1 Oviposition bioassays were conducted at USDA-ARS in Hilo, Hawaii using a laboratory two-choice cage experimental set-up with organic raspberries purchased from a local grocery as an oviposition substrate. For all laboratory assays listed below, the receptacles of the raspberries were stuffed with cotton to prevent flies from ovipositing on the interior of the fruit as described previously in Cha D H et al. (2021, supra). The two-choice oviposition bioassay was conducted over 24 hours in screened cages (30 cm W×30 cm L×30 cm H; BugDorm-2120 Insect tent; shop.bugdorm.com) with 30 female and 10 male SWD (7-8 days old) released per cage. Each cage was provided with cotton moistened with water in a 20 mL deli cup and two 30 mL deli cups; one with two raspberries treated with CFA diluted in hexane and the other with two raspberries treated with hexane only. Each raspberry was surface-treated either with 200 μL of hexane or 200 μL of CFA in one of three doses (20, 2, or 0.2 mg CFA/200 μL hexane), placed into a fume hood for 10 minutes or until used in the bioassay. The deli cups with the treated berries were positioned in the center of the floor of the screened cage, 17 cm apart from each other. Female flies were allowed to oviposit on the surface of raspberries for 24 hours. At the conclusion of the bioassay, each 30 mL deli cup containing two raspberries was moved into a 600 mL deli cup with a mesh cap, held for 8 days (22.1±1.9° C., 71.7±3.1% RH, 16:8 L:D), when the number of larvae and pupae were counted. The experiment was replicated four times per treatment. Laboratory choice test 2 A series of bioassays were conducted in Hilo, Hawaii to identify key bioactive deterrent components of CFA for SWD using the same two-choice bioassay described above. […] Due to solubility differences, ethanol was used as control and for dilution of C16:0 and C18:0, while hexane was used as control and for dilution of the other six compounds tested. Based on the outcome of these bioassays, the eight free fatty acid components of CFA were grouped into two groups; “SWD negative” compounds (i.e., SWD oviposition was reduced) and “SWD neutral” compounds (i.e., no effect on oviposition), and tested whether the blend of “SWD negative” compounds had the same oviposition deterrence as the CFA at their equivalent concentrations as in CFA (see Table 2). The oviposition deterrence of the blend of “SWD negative” compounds was first compared to hexane at three different doses (20, 2 and 0.2 mg CFA equivalent/raspberry) and subsequently compared to CFA at 2 mg equivalent dose.

| Compound | effect on female B. dorsalis attraction and oviposition to host fruit odors (Bactrocera dorsalis) | Activity (OFF oviposition group) [1] | Behavioral activity (Z. cucurbitae oviposition group) (Zeugodacus cucurbitae) | Behavioral activity (SWD oviposition group) (Drosophila suzukii (SWD)) | effect on SWD oviposition vs control (Drosophila suzukii (SWD)) | other results |
| --- | --- | --- | --- | --- | --- | --- |
| CCCCCCCCCCC(=O)O [C11:0, Undecylic acid] | – | – | – | – | – | effect on OFF oviposition vs control agar [1]: significantly reduced |
| CCCCCCCCC(=O)OC [C9:0 ME, Methyl pelargonate] | significantly reduced | – | – | – | – | – |
| CCCCCCCCCCC(=O)OC [C11:0 ME, Methyl undecanoate] | significantly reduced | – | – | – | – | – |
| CCCCCCCCCCCCCCC(=O)OC [C15:0 ME, Methyl pentadecanoate] | significantly reduced | – | – | – | – | – |
| CCCCCCCCCCCCC(=O)OC [C13:0 ME, Methyl tridecanoate] | significantly reduced | – | – | – | – | – |
| CCCCCCCCCCCC(=O)O [C12:0, lauric acid] | – | Neutral | Positive | Neutral | did not increase or decrease SWD oviposition | effect on OFF oviposition vs control agar [1]: did not affect OFF oviposition; Z. cucurbitae oviposition increase vs ethanol control agar (Zeugodacus cucurbitae; 20 mg dose): 86.4% |
| CCCCCCCCCCCCCCCC(=O)O [C16:0, palmitic acid] | – | Positive | Positive | Neutral | did not increase or decrease SWD oviposition | OFF oviposition increase vs control agar [1]: 60%; Z. cucurbitae oviposition increase vs ethanol control agar (Zeugodacus cucurbitae; 20 mg dose): 67.3% |
| CCCCCCCCCCCCCCCCCC(=O)O [C18:0, stearic acid] | – | Positive | Neutral | Neutral | did not increase or decrease SWD oviposition | OFF oviposition increase vs control agar [1]: 29%; effect on Z. cucurbitae oviposition (Zeugodacus cucurbitae; 20 mg dose): did not affect oviposition |
| CCCCCCCC/C=C\CCCCCCCC(=O)O [C18:1, oleic acid] | – | Negative | Negative | Neutral | did not increase or decrease SWD oviposition | OFF oviposition reduction vs control agar [1]: 100%; OFF oviposition deterrence at lower dose [1]: maintained OFF oviposition deterrence; effect on Z. cucurbitae oviposition (Zeugodacus cucurbitae; 2 mg dose): either lost oviposition deterrence or increased oviposition; Z. cucurbitae oviposition reduction vs control agar (Zeugodacus cucurbitae; 20 mg dose): 98.1% |
| CCCCC/C=C\C/C=C\CCCCCCCC(=O)O [C18:2, linoleic acid] | – | Negative | Negative | Neutral | did not increase or decrease SWD oviposition | OFF oviposition reduction vs control agar [1]: 99%; OFF oviposition deterrence at lower dose [1]: maintained OFF oviposition deterrence; effect on Z. cucurbitae oviposition (Zeugodacus cucurbitae; 2 mg dose): either lost oviposition deterrence or increased oviposition; Z. cucurbitae oviposition reduction vs control agar (Zeugodacus cucurbitae; 20 mg dose): 96.4% |
| CCCCCCCCCCCCCC(=O)O [C14:0, myristic acid] | – | Neutral | Positive | Neutral | did not increase or decrease SWD oviposition | effect on OFF oviposition vs control agar [1]: did not affect OFF oviposition; Z. cucurbitae oviposition increase vs ethanol control agar (Zeugodacus cucurbitae; 20 mg dose): 77.7% |
